Data as given in PMC5360100 (Biochemical pharmacology, 2011).

Experiments:
Assay in all cases: […]cAMP formation from [alpha-32P]ATP, Sf9 membranes
Assay type in all cases: biochemical
canine AC5 [1] = molecular target: T1, canine AC5 (Canis lupus, UniProt P30803); settings: 300 µM; 7 mM Mg2+, 40 μM ATP, 10 μM GTPγS, pH 7.4, 30°C, 3% DMSO
bovine AC1 [2] = molecular target: T2, bovine AC1 (Bos taurus, UniProt P19754); settings: 300 µM; 7 mM Mg2+, 40 μM ATP, 10 μM GTPγS, pH 7.4, 30°C, 3% DMSO
rat AC2 [3] = molecular target: T3, rat AC2 (Rattus norvegicus, UniProt P26769); settings: 300 µM; 7 mM Mg2+, 40 μM ATP, 10 μM GTPγS, pH 7.4, 30°C, 3% DMSO
T3 sequence (P26769 whole entry): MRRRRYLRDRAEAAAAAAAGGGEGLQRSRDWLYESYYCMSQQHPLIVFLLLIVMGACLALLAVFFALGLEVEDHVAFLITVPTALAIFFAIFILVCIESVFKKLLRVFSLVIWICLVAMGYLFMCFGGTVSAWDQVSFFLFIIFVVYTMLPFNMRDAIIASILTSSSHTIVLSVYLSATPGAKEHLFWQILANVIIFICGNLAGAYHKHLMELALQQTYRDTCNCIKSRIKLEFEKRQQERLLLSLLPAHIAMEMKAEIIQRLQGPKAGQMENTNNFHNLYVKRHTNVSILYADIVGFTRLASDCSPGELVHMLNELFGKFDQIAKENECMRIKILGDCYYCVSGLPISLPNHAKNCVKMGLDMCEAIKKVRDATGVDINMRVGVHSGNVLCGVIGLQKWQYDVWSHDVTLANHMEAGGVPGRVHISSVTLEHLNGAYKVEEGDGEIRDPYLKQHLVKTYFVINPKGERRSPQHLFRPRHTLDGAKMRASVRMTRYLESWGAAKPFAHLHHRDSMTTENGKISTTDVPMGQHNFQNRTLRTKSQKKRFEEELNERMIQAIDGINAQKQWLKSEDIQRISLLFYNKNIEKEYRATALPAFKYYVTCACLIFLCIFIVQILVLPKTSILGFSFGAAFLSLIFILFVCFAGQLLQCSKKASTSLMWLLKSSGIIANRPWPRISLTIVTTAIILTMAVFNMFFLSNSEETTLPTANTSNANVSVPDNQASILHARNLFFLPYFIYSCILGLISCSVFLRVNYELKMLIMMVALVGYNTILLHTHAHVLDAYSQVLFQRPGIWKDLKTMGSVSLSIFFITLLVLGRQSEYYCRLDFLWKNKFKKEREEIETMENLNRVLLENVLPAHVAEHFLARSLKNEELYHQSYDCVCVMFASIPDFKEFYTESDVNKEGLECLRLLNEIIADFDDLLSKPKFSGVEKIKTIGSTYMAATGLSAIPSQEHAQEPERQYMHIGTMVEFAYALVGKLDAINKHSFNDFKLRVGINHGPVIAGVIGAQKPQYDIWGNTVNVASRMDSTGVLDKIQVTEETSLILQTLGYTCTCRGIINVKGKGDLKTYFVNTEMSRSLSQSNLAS

bovine AC1 [4] = molecular target: T2, bovine AC1
canine AC5 [5] = molecular target: T1, canine AC5
rat AC2 [6] = molecular target: T3, rat AC2

T1 sequence (P30803 whole entry): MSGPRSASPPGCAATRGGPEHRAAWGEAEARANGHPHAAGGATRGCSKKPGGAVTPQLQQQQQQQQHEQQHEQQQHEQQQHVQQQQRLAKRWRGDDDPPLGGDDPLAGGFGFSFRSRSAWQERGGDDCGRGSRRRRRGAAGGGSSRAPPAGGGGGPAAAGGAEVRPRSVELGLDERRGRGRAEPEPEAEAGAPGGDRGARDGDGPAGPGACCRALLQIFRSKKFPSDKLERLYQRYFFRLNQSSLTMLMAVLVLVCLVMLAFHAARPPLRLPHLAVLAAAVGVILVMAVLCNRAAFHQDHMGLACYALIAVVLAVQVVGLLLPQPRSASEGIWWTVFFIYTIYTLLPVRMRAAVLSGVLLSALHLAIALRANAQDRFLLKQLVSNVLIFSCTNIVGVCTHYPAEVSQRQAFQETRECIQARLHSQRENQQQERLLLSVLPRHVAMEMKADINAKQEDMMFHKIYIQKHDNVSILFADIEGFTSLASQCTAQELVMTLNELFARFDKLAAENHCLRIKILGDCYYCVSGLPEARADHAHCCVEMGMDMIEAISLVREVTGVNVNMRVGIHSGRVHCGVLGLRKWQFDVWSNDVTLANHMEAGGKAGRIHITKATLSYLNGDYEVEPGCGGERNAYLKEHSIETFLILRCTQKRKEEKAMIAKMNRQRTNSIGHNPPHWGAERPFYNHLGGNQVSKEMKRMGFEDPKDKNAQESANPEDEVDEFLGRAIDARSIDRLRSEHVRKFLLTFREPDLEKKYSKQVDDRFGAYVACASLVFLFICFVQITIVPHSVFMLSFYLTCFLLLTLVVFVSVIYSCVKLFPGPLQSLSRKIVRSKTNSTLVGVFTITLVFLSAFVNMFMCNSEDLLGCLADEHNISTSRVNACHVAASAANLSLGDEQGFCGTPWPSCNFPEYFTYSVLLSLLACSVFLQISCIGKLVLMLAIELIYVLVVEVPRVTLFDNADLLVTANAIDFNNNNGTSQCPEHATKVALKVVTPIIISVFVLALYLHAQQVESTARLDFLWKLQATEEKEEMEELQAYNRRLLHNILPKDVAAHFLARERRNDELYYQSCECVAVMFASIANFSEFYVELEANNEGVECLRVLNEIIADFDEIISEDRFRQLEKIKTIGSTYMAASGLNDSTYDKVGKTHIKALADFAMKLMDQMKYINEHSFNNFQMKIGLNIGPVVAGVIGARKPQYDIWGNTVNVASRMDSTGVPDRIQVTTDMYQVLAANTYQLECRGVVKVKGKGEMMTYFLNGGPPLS
T2 sequence (P19754 whole entry): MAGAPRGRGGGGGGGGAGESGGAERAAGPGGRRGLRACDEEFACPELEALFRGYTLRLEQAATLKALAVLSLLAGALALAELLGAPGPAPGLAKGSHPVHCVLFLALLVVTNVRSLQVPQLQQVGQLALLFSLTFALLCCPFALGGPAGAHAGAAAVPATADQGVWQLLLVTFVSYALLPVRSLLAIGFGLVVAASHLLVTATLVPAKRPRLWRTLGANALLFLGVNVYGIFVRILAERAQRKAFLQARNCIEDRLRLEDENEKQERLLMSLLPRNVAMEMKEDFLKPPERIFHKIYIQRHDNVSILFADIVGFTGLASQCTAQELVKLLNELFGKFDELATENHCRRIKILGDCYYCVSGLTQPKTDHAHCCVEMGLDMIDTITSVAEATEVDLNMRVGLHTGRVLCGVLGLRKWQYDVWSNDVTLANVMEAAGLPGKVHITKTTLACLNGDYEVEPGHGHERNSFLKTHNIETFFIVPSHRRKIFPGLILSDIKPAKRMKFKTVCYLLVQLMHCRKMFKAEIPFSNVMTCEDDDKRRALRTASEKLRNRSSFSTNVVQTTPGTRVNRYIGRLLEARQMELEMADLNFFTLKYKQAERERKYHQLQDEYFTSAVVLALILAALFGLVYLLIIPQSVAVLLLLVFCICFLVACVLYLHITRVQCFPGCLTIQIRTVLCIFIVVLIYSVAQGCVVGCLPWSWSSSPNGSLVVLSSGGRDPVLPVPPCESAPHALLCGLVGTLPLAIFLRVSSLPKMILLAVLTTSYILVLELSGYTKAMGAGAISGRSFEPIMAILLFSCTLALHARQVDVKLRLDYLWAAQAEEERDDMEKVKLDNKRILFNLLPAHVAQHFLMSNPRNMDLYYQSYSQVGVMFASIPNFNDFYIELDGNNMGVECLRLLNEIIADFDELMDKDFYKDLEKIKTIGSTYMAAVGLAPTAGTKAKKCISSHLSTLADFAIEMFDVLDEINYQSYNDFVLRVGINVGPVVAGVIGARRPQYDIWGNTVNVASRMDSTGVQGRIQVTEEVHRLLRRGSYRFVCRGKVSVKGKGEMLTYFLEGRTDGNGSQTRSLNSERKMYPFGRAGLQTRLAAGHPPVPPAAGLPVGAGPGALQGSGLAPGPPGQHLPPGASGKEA

| AC5 / Efficacy [%] (canine AC5 [1]) | AC1 / Efficacy [%] (bovine AC1 [2]) | AC2 / Efficacy [%] (rat AC2 [3]) | EC50 (bovine AC1 [4]) | EC50 (canine AC5 [5]) | EC50 (rat AC2 [6]) | SMILES |
| --- | --- | --- | --- | --- | --- | --- |
| 14.7 ± 4.4% | 11.1 ± 4.7% | 1.7 ± 3.4% |  |  |  | C=C[C@@]1(C)CC(=O)[C@]2(O)[C@@]3(C)CCCC(C)(C)[C@@H]3[C@H](O)[C@H](OC(C)=O)[C@@]2(C)O1 [1d-FS] |
|  |  |  | 6.5 ± 2.1 µM | 52.1 ± 16.7 µM | 1.8 µM | C=C[C@@]1(C)CC(=O)[C@]2(O)[C@@]3(C)[C@@H](O)CCC(C)(C)[C@@H]3[C@H](OC(C)=O)[C@H](O)[C@@]2(C)O1 [6A7DA-FS] |
|  |  |  | 16.8 ± 3 µM | 77.8 ± 46.1 µM | 242 ± 113 µM | C=C[C@@]1(C)CC(=O)[C@H]2[C@](C)(O1)[C@@H](OC(C)=O)[C@@H](O)[C@H]1C(C)(C)CC[C@H](O)[C@@]12C [9d-FS] |
|  |  |  | 5.5 ± 0.8 µM | 4.6 ± 1.5 µM | 47.3 ± 8.1 µM | C=C[C@@]1(C)CC(=O)[C@]2(O)[C@@]3(C)[C@@H](O)CCC(C)(C)[C@@H]3[C@H](O)[C@H](OC(C)=O)[C@@]2(C)O1 [FS] |
